# Test results: patent US20100075852A1, “HERBICIDE COMBINATION COMPRISING DIMETHOXYTRIAZINYL-SUBSTITUTED DIFLUOROMETHANESULFONYLANILIDES” (BAYER CROPSCIENCE AG, priority 2008, published 2010)
# Where two headings read alike, the source gives them in different places.
# Experiments:
# Experiment in all cases: Post-emergence action against weeds, greenhouse pot test, visual scoring
# Assay type in all cases: in vivo
# Oryza sativa (ORYSA) = conditions: read-out: % activity found; for inhibition at 7 g/ha: 7 g of ai/ha alone; for inhibition at 210 g/ha: 210 g of ai/ha alone
# Experimental: (§1) Seeds or rhizome pieces of mono- and dicotyledonous harmful and useful plants were placed in peat pots (diameter 4 cm) filled with sandy loam and then covered with soil. The pots were kept in a greenhouse under optimum conditions. In addition, harmful plants encountered in paddy rice cultivation were cultivated in pots with a water level 2 cm above the soil surface.
# (§2) About three weeks after the start of the cultivation, the test plants were treated at the 2- to 3-leaf stage. The herbicides, formulated as powder or liquid concentrates, were, either alone or in the combinations according to the invention, sprayed in various dosages on to the green parts of the plants using an application rate of 600 l of water/ha (converted). For further cultivation of the plants, the pots were then again kept under optimum conditions in a greenhouse.
# (§3) The visual scoring of the herbicidal effects was carried out in intervals up to 21 days after the treatment. Scoring was carried out in percent in comparison to the untreated control plants. 0%=no herbicidal activity, 100%=complete herbicidal activity=complete kill.
# (§4) The percentages from the treatments with the herbicides alone (=individual application) and with the combinations according to the invention (=mixtures) were employed to calculate interactions using the method of Colby. When the observed efficacies of the mixtures exceed the formal sum of the values of the tests with individual applications, they also exceed the expected value according to Colby, which is calculated using the formula below (cf. S. R. Colby; in Weeds 15 (1967) pp. 20 to 22):
# (§5) • A, B=activity of components A and B in percent at a dosage of a and b g of ai/ha (=gramm of active substance per hectare), respectively. • E=expected value in % at a dosage of a+b g of ai/ha.
# [1] = tested on: Lolium multiflorum (LOLMU); conditions: Lolium multiflorum, post-emergence, LOLMU, read-out: % activity found; for inhibition at 60 g/ha: 60 g of ai/ha alone; for inhibition at 12 g/ha: 12 g of ai/ha alone; for inhibition at 70 g/ha: 70 g of ai/ha alone; for inhibition at 750 g/ha: 750 g of ai/ha alone
# Experimental: as §1, §2, §3
# (§6) The percentages from the treatments with the herbicides alone (=individual application) and with the combinations according to the invention (=mixtures) were employed to calculate interactions using the method of Colby.
# as §5
# [2] = tested on: Cyperus esculentus (CYPES)
# Experimental: as §1, §2, §3, §6, §5
# Avena fatua (AVEFA) = conditions: Avena fatua, post-emergence, 504 h, read-out: % activity found
# Experimental: as §1, §2, §3, §6, §5
# Viola tricolor (VIOTR) = conditions: Viola tricolor, post-emergence, 504 h, 21 DAT, read-out: % activity found
# Experimental: as §1, §2, §3, §6, §5
# Zea mays (ZEAMX) = conditions: for inhibition at 36 g/ha: 36 g of ai/ha alone
# Experimental: as §1, §2, §3, §6, §5
# [3] = tested on: Alopecurus myosuroides (ALOMY); conditions: read-out: % activity found; for inhibition at 20 g/ha: 20 g of ai/ha alone; for inhibition at 60 g/ha: 60 g of ai/ha alone
# Experimental: as §1, §2, §3, §4, §5
# [4] = tested on: Triticum aestivum (TRZAS); conditions: Triticum aestivum, post-emergence, read-out: % activity found; for inhibition at 20 g/ha: 20 g of ai/ha alone; for inhibition at 60 g/ha: 60 g of ai/ha alone; for inhibition at 750 g/ha: 750 g of ai/ha alone
# Experimental: as §1, §2, §3, §6, §5
# [5] = tested on: Fallopia (ex Polygonum) convolvulus (POLCO); conditions: Fallopia convolvulus, post-emergence, 504 h, POLCO, 21 DAT, read-out: % activity found
# Experimental: as §1, §2, §3, §6, §5
# [6] = tested on: Matricaria inodora (MATIN); conditions: Tripleurospermum inodorum, post-emergence, 504 h, MATIN, 21 DAT, read-out: % activity found
# Experimental: as §1, §2, §3, §6, §5
# [7] = Cyperus esculentus, post-emergence, 504 h, read-out: % activity found
# [8] = Zea mays, post-emergence, 240 h, read-out: % activity found
structure (smiles),measurement,setting,value
"COCc1cnc(C2=NC(C)(C(C)C)C(=O)N2)c(C(=O)O)c1 (racemic) [B4-2, (±)-2-[4,5-dihydro-4-methyl-4-(1-methylethyl)-5-oxo-1H-imidazol-2-yl]-5-(methoxymethyl)-3-pyridinecarboxylic acid]",inhibition at 7 g/ha,"Oryza sativa (ORYSA); 240 h, ORYSA, 10 DAT",70%
same,inhibition at 7 g/ha,"Oryza sativa (ORYSA); 504 h, ORYSA, 21 DAT",70%
same,inhibition at 7 g/ha,"[1]; 504 h, 21 DAT, 7 g of ai/ha alone",80%
same,inhibition at 7 g/ha,"[2]; Cyperus esculentus, post-emergence, 504 h, CYPES, 21 DAT, 7 g of ai/ha alone, read-out: % activity found",0%
same,inhibition at 21 g/ha,"Avena fatua (AVEFA); AVEFA, 21 DAT, 21 g of ai/ha alone",70%
same,inhibition at 7 g/ha,Viola tricolor (VIOTR); 7 g of ai/ha alone,20%
same,inhibition at 21 g/ha,Viola tricolor (VIOTR); 21 g of ai/ha alone,40%
same,inhibition at 7 g/ha,"Zea mays (ZEAMX); Zea mays, post-emergence, 504 h, ZEAMX, 21 DAT, 7 g of ai/ha alone, read-out: % activity found",10%
same,inhibition at 21 g/ha,"Zea mays (ZEAMX); Zea mays, post-emergence, 504 h, ZEAMX, 21 DAT, 21 g of ai/ha alone, read-out: % activity found",60%
"CS(=O)(=O)c1cc(C(F)(F)F)ccc1C(=O)c1cnoc1C1CC1 [B3-3, (5-cyclopropyl-4-isoxazolyl)[2-(methylsulfonyl)-4-(trifluoromethyl)phenyl]methanone]",inhibition at 20 g/ha,"[3]; 240 h, ALOMY, 10 DAT",20%
same,inhibition at 60 g/ha,"[3]; 240 h, ALOMY, 10 DAT",30%
same,inhibition at 20 g/ha,"[3]; 504 h, ALOMY, 21 DAT",0%
same,inhibition at 60 g/ha,"[3]; 504 h, ALOMY, 21 DAT",10%
same,inhibition at 20 g/ha,"Oryza sativa (ORYSA); 240 h, ORYSA, 10 DAT, 20 g of ai/ha alone",50%
same,inhibition at 60 g/ha,"[1]; 240 h, 10 DAT",30%
same,inhibition at 20 g/ha,"[1]; 504 h, 21 DAT, 20 g of ai/ha alone",0%
same,inhibition at 60 g/ha,"[1]; 504 h, 21 DAT",0%
same,inhibition at 20 g/ha,"[4]; 240 h, 10 DAT",30%
same,inhibition at 60 g/ha,"[4]; 240 h, 10 DAT",50%
same,inhibition at 20 g/ha,"[4]; 504 h, 21 DAT",20%
same,inhibition at 60 g/ha,"[4]; 504 h, 21 DAT",40%
same,inhibition at 20 g/ha,"[2]; Cyperus esculentus, post-emergence, 504 h, CYPES, 21 DAT, 20 g of ai/ha alone, read-out: % activity found",0%
same,inhibition at 20 g/ha,[5]; 20 g of ai/ha alone,0%
same,inhibition at 60 g/ha,[5]; 60 g of ai/ha alone,0%
same,inhibition at 20 g/ha,"Zea mays (ZEAMX); Zea mays, post-emergence, 504 h, ZEAMX, 21 DAT, 20 g of ai/ha alone, read-out: % activity found",0%
same,inhibition at 60 g/ha,"Zea mays (ZEAMX); Zea mays, post-emergence, 504 h, ZEAMX, 21 DAT, 60 g of ai/ha alone, read-out: % activity found",20%
"C#CCOc1cc(-n2nc(C(C)(C)C)oc2=O)c(Cl)cc1Cl [B5-2, 3-[2,4-dichloro-5-(2-propynyloxy)phenyl]-5-(1,1-dimethylethyl)-1,3,4-oxadiazol-2(3H)-one]",inhibition at 12 g/ha,"[3]; 504 h, ALOMY, 21 DAT, 12 g of ai/ha alone",20%
same,inhibition at 12 g/ha,"[1]; 240 h, 10 DAT",40%
same,inhibition at 12 g/ha,"[1]; 504 h, 21 DAT",30%
same,inhibition at 36 g/ha,"[1]; 504 h, 21 DAT, 36 g of ai/ha alone",65%
same,inhibition at 36 g/ha,"[4]; 240 h, 10 DAT, 36 g of ai/ha alone",40%
same,inhibition at 12 g/ha,"Avena fatua (AVEFA); AVEFA, 21 DAT, 12 g of ai/ha alone",20%
same,inhibition at 12 g/ha,[6]; 12 g of ai/ha alone,60%
same,inhibition at 36 g/ha,[6]; 36 g of ai/ha alone,60%
same,inhibition at 36 g/ha,"Zea mays (ZEAMX); Zea mays, post-emergence, 240 h, ZEAMX, 10 DAT, read-out: % activity found",60%
same,inhibition at 36 g/ha,"Zea mays (ZEAMX); Zea mays, post-emergence, 504 h, ZEAMX, 21 DAT, read-out: % activity found",40%
"CC(C)Oc1cc(-n2nc(C(C)(C)C)oc2=O)c(Cl)cc1Cl [B5-3, 3-[2,4-dichloro-5-(1-methylethoxy)phenyl]-5-(1,1-dimethylethyl)-1,3,4-oxadiazol-2(3H)-one]",inhibition at 210 g/ha,"Oryza sativa (ORYSA); 240 h, ORYSA, 10 DAT",40%
same,inhibition at 70 g/ha,"Oryza sativa (ORYSA); 504 h, ORYSA, 21 DAT, 70 g of ai/ha alone",0%
same,inhibition at 210 g/ha,"Oryza sativa (ORYSA); 504 h, ORYSA, 21 DAT",0%
same,inhibition at 70 g/ha,"[1]; 240 h, 10 DAT",50%
same,inhibition at 70 g/ha,"[1]; 504 h, 21 DAT",40%
same,inhibition at 70 g/ha,"[4]; 240 h, 10 DAT, 70 g of ai/ha alone",40%
same,inhibition at 70 g/ha,"Avena fatua (AVEFA); AVEFA, 21 DAT, 70 g of ai/ha alone",10%
same,inhibition at 210 g/ha,"Avena fatua (AVEFA); AVEFA, 21 DAT, 210 g of ai/ha alone",30%
same,inhibition at 70 g/ha,[6]; 70 g of ai/ha alone,70%
same,inhibition at 210 g/ha,[6]; 210 g of ai/ha alone,70%
same,inhibition at 210 g/ha,"Zea mays (ZEAMX); Zea mays, post-emergence, 504 h, ZEAMX, 21 DAT, 210 g of ai/ha alone, read-out: % activity found",60%
"CC(C)c1nn(C(=O)NC(C)(C)C)c(=O)n1N [B6-1, 4-amino-N-(1,1-dimethylethyl)-4,5-dihydro-3-(1-methylethyl)-5-oxo-1H-1,2,4-triazole-1-carboxamide]",inhibition at 750 g/ha,"[3]; 504 h, ALOMY, 21 DAT, 750 g of ai/ha alone",70%
same,inhibition at 750 g/ha,"[1]; 240 h, 10 DAT",60%
same,inhibition at 750 g/ha,"[1]; 504 h, 21 DAT",70%
same,inhibition at 250 g/ha,"[4]; 240 h, 10 DAT, 250 g of ai/ha alone",10%
same,inhibition at 750 g/ha,"[4]; 240 h, 10 DAT",20%
same,inhibition at 750 g/ha,"[4]; 504 h, 21 DAT",70%
same,inhibition at 250 g/ha,[2]; [7],0%
same,inhibition at 750 g/ha,[2]; [7],0%
same,inhibition at 750 g/ha,"Zea mays (ZEAMX); Zea mays, post-emergence, 504 h, ZEAMX, 21 DAT, 750 g of ai/ha alone, read-out: % activity found",10%
"CCOC(=O)C(Cl)Cc1cc(-n2nc(C)n(C(F)F)c2=O)c(F)cc1Cl (stereo not drawn) [B6-2, ethyl α,2-dichloro-5-[4-(difluoromethyl)-4,5-dihydro-3-methyl-5-oxo-1H-1,2,4-triazol-1-yl]-4-fluorobenzenepropanoate]",inhibition at 6 g/ha,[3]; 504 h,0%
same,inhibition at 18 g/ha,[3]; 504 h,0%
same,inhibition at 6 g/ha,Oryza sativa (ORYSA); 240 h,50%
same,(7) activity found,"[2]; CYPES, 21 DAT, rate (6) B6-2 18",50%
same,inhibition at 6 g/ha,Avena fatua (AVEFA),10%
same,(7) activity found,"Zea mays (ZEAMX); ZEAMX, 21 DAT, rate (6) B6-2 6",30%
same,(7) activity found,"Zea mays (ZEAMX); ZEAMX, 21 DAT, rate (6) B6-2 18",40%
same,inhibition at 6 g/ha,Zea mays (ZEAMX); [8],50%
same,inhibition at 18 g/ha,Zea mays (ZEAMX); [8],60%
